Patent publication US8383578B2, “Peptides, derivatives and analogs thereof, and methods of using same” (CureDM Group Holdings, LLC, priority 2005, dated 2013)
Entries after “also recorded” stand apart in the source; their conditions may differ.

Assays:
[1] = dosages up to 10,000 IU/day; cited from earlier work
[2] = system: human pancreatic ductal tissue cultures; test: Insulin production in human pancreatic ductal tissue cultures, ELISA; assay type: cell-based; conditions: for insulin production vs Peptide 4 (hamster INGAP) and Peptide 5 (scrambled) (FIG. 4): after 10 days, Rosenberg protocol, samples 5 μg total protein in duplicate; for insulin production vs hamster INGAP and scrambled control (FIG. 7A): two concentrations of peptide (3 μM and 1 mM)
Protocol: (§1) Human pancreatic tissue was treated as described in Example 1 and Insulin production was measured by ELISA assay. FIGS. 4 and 5 show the results of this experiment to show a dose response and to again compare the effect of HIP on the two different fractions of tissue as compared to the hamster INGAP sequence and a scrambled negative peptide sequence. […] The results in FIG. 4 involve the use of 5 μg of each peptide, while the results in FIG. 5 were acquired using 0.002 μg of each peptide.

[3] = system: human pancreatic islet tissue; test: Insulin production in human pancreatic islet tissue culture, radioimmunoassay; assay type: cell-based; conditions: 1 mM for a final culture concentration of 500 nM
Protocol: (§2) Human pancreatic islet and progenitor fractions were cultured over 10 days, according to standard protocol. Briefly, pancreata from adult human cadaveric organ donors were obtained through the local organ procurement organization. Islets were isolated according to established protocols described by Bonner-Weir and Jamal. (Bonner-Weir et al., Pediatric Diabetes: 2004; 5(Suppl 2):16-22. Jamal et al., Cell Death Differ. 2005 July; 12(7):702-12).
(§3) Following removal of the organ, cold ischemia time was no more than 8 hours prior to islet isolation. The main pancreatic duct was cannulated and perfused with Liberase HI (Roche Diagnostics). The perfused organ was placed in a closed system (Ricordi Apparatus) and heated to 37° C. to activate the enzyme blend. Following the appearance of free islets in samples, the system was cooled and free tissues were collected and washed. Tissues were applied to a continuous density gradient created using Ficoll (Biochrom KG) in a cell processor (COBE). Free islets with diameters ranging from 75 to 400 μm, determined to be greater than 90% pure by staining with dithizone (Sigma) a zinc chelater, were collected and washed. IHC to detect the presence of amylase and cytokeratin was negative, consistent with the absence of progenitor and exocrine tissue. The progenitor fraction from this separation was also collected for culture.
(§4) Isolated islets were embedded in a type 1 collagen matrix at a density of 2000 islet equivalents/25 cm^2 and cultured in DMEM/F12 containing 10% FBS, 1 μM dexamethasone, 10 ng/ml EGF, 24 mU/ml insulin and 100 ng/ml cholera toxin. Medium was changed every other day. On day 10, culture was continued in the above medium, without the cholera toxin, with neogenic agents and inhibitors at the final concentrations listed below. Medium was changed every other day. Collagen-embedded cultures were harvested by incubating with 0.25 g/L collagenase XI (Sigma) for 30 minutes at 37° C. […]
(§5) Insulin levels were detected by Radioimmunoassay (RIA) from cultures treated with saline only, scrambled peptide, SEQ ID NOs: 7, 3 or 2 and hamster INGAP. […]

[4] = system: human pancreatic islet tissue cultures; test: Insulin production in human pancreatic islet tissue cultures, ELISA; assay type: cell-based; conditions: for insulin production vs Peptide 4 (hamster INGAP) and Peptide 5 (scrambled) (FIG. 5): after 10 days, Rosenberg protocol, 0.002 μg of each peptide in duplicate; for insulin production vs hamster INGAP and scrambled control (FIG. 7B): two concentrations of peptide (3 μM and 1 mM)
Protocol: as §1

[5] = system: human pancreatic ductal tissue culture; test: Insulin production in human pancreatic ductal tissue culture, radioimmunoassay; assay type: cell-based; conditions: 3.3 μM (final culture concentration of 165 nM)
Protocol: as §2, §3, §4, §5

NOD mice = test: HIP treatment of non-obese diabetic (NOD) mice; assay type: in vivo, mouse; conditions: HIP 1 μg/kg/day to 100 mg/kg/day, protocol example
Description: Animal Model. The non-obese diabetic (NOD) mouse strain has long been studied as an excellent model of type 1 diabetes because it spontaneously develops a disease that is very similar to the human condition. Delovitch, T. L., and Singh, B. 1997. Immunity. 7:727-738. Diabetes in NOD mice is mediated by inflammatory autoreactive T cells that recognize pancreatic islet antigens and escape central and peripheral tolerance.
Procedure: In a parental colony of NOD mice, incidence of diabetes in female NOD mice is typically 75-90% by 30 weeks but may exceed 90% in some cohorts. […] Doses of HIP range from 1 μg/kg/day to 100 mg/kg/day.
Treatment. Cohorts are treated in 2 arms with 2-4 dose ranges of HIP and a placebo, at a compensated dose for animal size, metabolism and circulation, or about 1/6 the mg/kg equivalence. Arm 1: saline, Arm 2: HIP.
Study Assessment. Blood glucose levels are measured every week with a One Touch II glucose meter (Lifescan). Mice are considered diabetic after 2 consecutive measurements over 300 mg/dl. For histological analysis, pancreases are snap-frozen. Multiple 5-μm sections are stained with hematoxylin and eosin and scored blindly for severity of insulitis as known in the art.

[6] = system: human pancreatic progenitor cells; test: Islet generation in human ductal tissue culture, inverted microscopy; assay type: cell-based; conditions: ductal/progenitor tissue fraction culture treated with HIP; listed as HIP
Protocol: A human ductal tissue fraction was isolated and cultured as described in Example 1. After 10 days of culture, cells were treated with HIP for four days and observed using inverted microscopy. […] Islets have formed what has previously been described as ductal epithelial cysts and are starting to bud at one end where a progenitor cell resides. […] In this panel the darkening of the budding portion of the ductal epithelial cyst indicates the differentiation of cells consistent with previously shown changes that occur with hamster INGAP treatment in vitro.

diabetic patients = conditions: cited from earlier work
type 1 patients = conditions: cited from earlier work

C=C1CC[C@H](O)C/C1=C/C=C1\CCC[C@]2(C)[C@@H]([C@H](C)CCCC(C)C)CC[C@@H]12 [Vitamin D, cholecalciferol]
adverse effects [1]: No adverse effects

IGLHDPTQGTEPNG (listed as Homo sapiens) [HIP2]
insulin production vs Peptide 4 (hamster INGAP) and Peptide 5 (scrambled) (FIG. 4) [2]: increased insulin production | insulin production vs hamster INGAP and scrambled control (FIG. 7A) [2]: increased insulin production | insulin production vs INGAP peptide and scrambled negative control (FIG. 2) [3]: increased insulin production | insulin production vs Peptide 4 (hamster INGAP) and Peptide 5 (scrambled) (FIG. 5) [4]: increased insulin production | insulin production vs hamster INGAP and scrambled control (FIG. 7B) [4]: increased insulin production | insulin production vs INGAP peptide and scrambled negative control (FIG. 1) [5]: increased insulin production

WIGLHDPTQGTEPNG [HIP1]
insulin production vs Peptide 4 (hamster INGAP) and Peptide 5 (scrambled) (FIG. 4) [2]: increased insulin production | insulin production vs hamster INGAP and scrambled control (FIG. 7A) [2]: increased insulin production | insulin production vs INGAP peptide and scrambled negative control (FIG. 2) [3]: increased insulin production | insulin production vs Peptide 4 (hamster INGAP) and Peptide 5 (scrambled) (FIG. 5) [4]: increased insulin production | insulin production vs hamster INGAP and scrambled control (FIG. 7B) [4]: increased insulin production | insulin production vs INGAP peptide and scrambled negative control (FIG. 1) [5]: increased insulin production

IGLHDPTQGTEPNGE (listed as Homo sapiens) [HIP3]
blood glucose levels (NOD mice): pronounced reduction | insulitis in pancreases (histology) (NOD mice): decreased showing of insulinitis | insulin production vs Peptide 4 (hamster INGAP) and Peptide 5 (scrambled) (FIG. 4) [2]: increased insulin production | insulin production vs hamster INGAP and scrambled control (FIG. 7A) [2]: increased insulin production | insulin production vs INGAP peptide and scrambled negative control (FIG. 2) [3]: increased insulin production | insulin production vs Peptide 4 (hamster INGAP) and Peptide 5 (scrambled) (FIG. 5) [4]: increased insulin production | insulin production vs hamster INGAP and scrambled control (FIG. 7B) [4]: increased insulin production | insulin production vs INGAP peptide and scrambled negative control (FIG. 1) [5]: increased insulin production | new islet structure formation in culture (micrographs) [6]: Morphological changes show islet like structure; also recorded: New islet structure has formed; also recorded: forming a nidus of new insulin producing islets; also recorded: forming insulin producing islet like structure

IGLHDPSHGTLPNGS (listed as Hamster sp.) [hamster INGAP]
patients with a >50% increase in GAD65 antibody titers (diabetic patients; 300 mg/day treatment group, Phase II study): 22% | C-peptide secretion (diabetic patients; 600 mg/day): increase | effectiveness (diabetic patients; Phase II trial): Little effectiveness | patient drop out due to discomfort and bruising at injection site (diabetic patients; human, in vivo): high drop out | tolerability (diabetic patients; human, in vivo): well tolerated | hemoglobin A1C (diabetic patients; type 2 diabetes patients): fell

CC[C@H](C)[C@H](NC(=O)[C@@H]1CCCN1C(=O)CNC(=O)[C@H](Cc1ccccc1)NC(=O)[C@H](CC(N)=O)NC(=O)[C@H](CC(N)=O)NC(=O)[C@H](CO)NC(=O)[C@H](CO)NC(=O)[C@H](Cc1c[nH]cn1)NC(=O)[C@@H](NC(=O)[C@H](CC(C)C)NC(=O)[C@H](Cc1ccccc1)NC(=O)[C@H](CC(N)=O)NC(=O)[C@H](C)NC(=O)[C@H](CC(C)C)NC(=O)[C@H](CCCNC(=N)N)NC(=O)[C@H](CCC(N)=O)NC(=O)[C@@H](NC(=O)[C@H](C)NC(=O)[C@@H]1CSSC[C@H](NC(=O)[C@@H](N)CCCCN)C(=O)N[C@@H](CC(N)=O)C(=O)N[C@@H]([C@@H](C)O)C(=O)N[C@@H](C)C(=O)N[C@@H]([C@@H](C)O)C(=O)N1)[C@@H](C)O)C(C)C)C(=O)N[C@@H](CC(C)C)C(=O)N1CCC[C@H]1C(=O)N1CCC[C@H]1C(=O)N[C@H](C(=O)N[C@@H](CC(N)=O)C(=O)N[C@H](C(=O)NCC(=O)N[C@@H](CO)C(=O)N[C@@H](CC(N)=O)C(=O)N[C@H](C(=O)N[C@@H](Cc1ccc(O)cc1)C(N)=O)[C@@H](C)O)C(C)C)[C@@H](C)O [Pramlintide]
glycemic excursions and pre-meal insulin requirements (type 1 patients): reduce glycemic excursions
